# Experimental data taken from ChEMBL document CHEMBL1201862, “PubChem BioAssay data set” (2004).
# Activity calls are given as the source filed them.
# Legend:
# [1] = biological target: Dual specificity protein kinase CLK1 (Homo sapiens, UniProt P49759); assay: CLK1 kinase inhibitors, off-target check, dose response, selectivity assay for Dyrk1A inhibitor project, biochemical, cherry-picked samples (AID 588811)
# Cytochrome P450 2C19 = Cytochrome P450 2C19 (Homo sapiens, UniProt P33261); assay: Cytochrome panel assay with activity outcomes. Panel member name: p450-cyp2c19 Compounds with AC50 equal or less than 10 uM are considered active; format: functional; conditions: read-out: AC50
# Chain of Cytochrome P450 2C19 (P33261 whole entry): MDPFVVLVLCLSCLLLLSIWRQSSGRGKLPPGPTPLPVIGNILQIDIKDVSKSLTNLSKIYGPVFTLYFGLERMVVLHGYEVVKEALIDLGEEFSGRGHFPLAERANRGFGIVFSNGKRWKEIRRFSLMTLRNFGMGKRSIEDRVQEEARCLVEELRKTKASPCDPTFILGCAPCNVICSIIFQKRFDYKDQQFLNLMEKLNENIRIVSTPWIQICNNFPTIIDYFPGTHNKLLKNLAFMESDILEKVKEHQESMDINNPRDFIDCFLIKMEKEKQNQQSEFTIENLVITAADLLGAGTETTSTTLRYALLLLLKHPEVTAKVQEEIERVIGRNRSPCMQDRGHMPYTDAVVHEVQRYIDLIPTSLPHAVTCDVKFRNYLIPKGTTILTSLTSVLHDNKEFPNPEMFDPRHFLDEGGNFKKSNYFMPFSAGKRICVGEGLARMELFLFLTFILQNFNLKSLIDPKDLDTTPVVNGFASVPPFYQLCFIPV
# Cytochrome P450 2C9 = Cytochrome P450 2C9 (Homo sapiens, UniProt P11712)
# Chain of Cytochrome P450 2C9 (P11712 whole entry): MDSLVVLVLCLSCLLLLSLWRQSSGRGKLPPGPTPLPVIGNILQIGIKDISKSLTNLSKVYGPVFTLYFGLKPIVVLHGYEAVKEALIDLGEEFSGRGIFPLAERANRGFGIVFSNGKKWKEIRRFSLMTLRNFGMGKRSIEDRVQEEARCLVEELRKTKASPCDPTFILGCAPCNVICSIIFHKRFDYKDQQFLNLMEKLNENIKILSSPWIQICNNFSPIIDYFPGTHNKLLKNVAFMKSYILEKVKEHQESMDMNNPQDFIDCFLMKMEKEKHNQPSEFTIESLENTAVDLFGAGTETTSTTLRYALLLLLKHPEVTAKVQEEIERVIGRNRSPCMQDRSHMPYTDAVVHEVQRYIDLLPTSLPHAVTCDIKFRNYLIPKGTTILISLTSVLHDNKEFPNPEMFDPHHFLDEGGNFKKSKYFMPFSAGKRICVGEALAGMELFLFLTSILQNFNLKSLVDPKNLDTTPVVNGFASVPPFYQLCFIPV
# [2] = biological target: Dual specificity tyrosine-phosphorylation-regulated kinase 1A (Rattus norvegicus, UniProt Q63470); format: biochemical, Homo sapiens
# Trypsin = Trypsin (Sus scrofa, UniProt P00761); assay: porcine trypsin inhibitors, dose response, selectivity assay for Rce1 protease inhibitor project, biochemical, quenched peptide fluorescence, cherry-pick (AID 488789)
# Chain of Trypsin (P00761 whole entry): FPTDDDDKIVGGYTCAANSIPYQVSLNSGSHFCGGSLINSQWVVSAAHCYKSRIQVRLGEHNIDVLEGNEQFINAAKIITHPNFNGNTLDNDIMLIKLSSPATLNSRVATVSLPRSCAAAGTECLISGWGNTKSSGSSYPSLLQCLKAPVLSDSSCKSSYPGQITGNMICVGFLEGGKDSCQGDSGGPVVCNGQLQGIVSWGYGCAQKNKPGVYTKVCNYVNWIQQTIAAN
# CAAX prenyl protease 2 = CAAX prenyl protease 2 (Homo sapiens, UniProt Q9Y256); assay: human Rce1 protease inhibitors, dose response, biochemical, yeast membranes, quenched-peptide fluorescence, cherry-pick (AID 588849)
# Chain of CAAX prenyl protease 2 (Q9Y256 whole entry): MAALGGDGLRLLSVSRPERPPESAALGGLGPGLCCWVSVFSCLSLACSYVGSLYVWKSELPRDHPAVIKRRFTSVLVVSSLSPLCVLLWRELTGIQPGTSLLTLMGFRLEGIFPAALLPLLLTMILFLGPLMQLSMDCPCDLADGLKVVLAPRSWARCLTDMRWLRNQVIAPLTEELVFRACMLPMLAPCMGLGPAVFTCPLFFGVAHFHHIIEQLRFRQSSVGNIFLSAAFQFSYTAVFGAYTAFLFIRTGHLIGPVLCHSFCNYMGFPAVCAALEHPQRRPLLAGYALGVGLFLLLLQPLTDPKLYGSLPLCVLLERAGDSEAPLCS
# [3] = biological target: T1, Runt-related transcription factor 1/Core-binding factor subunit beta (Homo sapiens, UniProt Q01196+Q13951); assay: inhibitors of RUNX1 Runt–CBFb-SMMHC binding, biochemical, TR-FRET (AID 1438); format: protein assay
# T1 sequence (Q01196 whole entry, the tested form may be a part): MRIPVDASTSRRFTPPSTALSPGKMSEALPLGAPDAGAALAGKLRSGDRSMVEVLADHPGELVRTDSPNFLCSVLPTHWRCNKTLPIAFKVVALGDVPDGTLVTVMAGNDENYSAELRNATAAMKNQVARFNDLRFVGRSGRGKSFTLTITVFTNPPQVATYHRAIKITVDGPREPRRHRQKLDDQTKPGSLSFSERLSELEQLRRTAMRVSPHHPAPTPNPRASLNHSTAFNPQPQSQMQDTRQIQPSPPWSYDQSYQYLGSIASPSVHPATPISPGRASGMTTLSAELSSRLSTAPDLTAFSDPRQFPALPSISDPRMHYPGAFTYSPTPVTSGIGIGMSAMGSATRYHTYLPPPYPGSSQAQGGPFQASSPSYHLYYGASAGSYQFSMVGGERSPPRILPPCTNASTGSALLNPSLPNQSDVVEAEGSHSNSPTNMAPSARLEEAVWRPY
# T1 sequence (Q13951 whole entry, the tested form may be a part): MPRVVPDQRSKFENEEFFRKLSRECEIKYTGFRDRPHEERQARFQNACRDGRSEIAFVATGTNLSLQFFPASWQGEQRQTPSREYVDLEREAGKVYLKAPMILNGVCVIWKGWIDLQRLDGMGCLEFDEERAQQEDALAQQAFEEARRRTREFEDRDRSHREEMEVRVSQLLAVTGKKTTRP
# [4] = biological target: T1, Runt-related transcription factor 1/Core-binding factor subunit beta; assay: inhibitors of RUNX1 Runt–CBFb-SMMHC binding, primary screen, biochemical, FRET, Cerulean-Runt, Venus-CBFb-SMMHC, uHTS (AID 1434); format: protein assay;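 further: partner is the CBFb-SMMHC leukemia fusion protein rather than wild-type CBFb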
# NIH3T3 = assay: cytotoxicity in NIH-3T3 fibroblasts, dose response, cytotoxicity control for antifungal drug resistance project, cell-based, Alamar Blue, fluconazole, dry powder (AID 488809); format: functional; conditions: Mus musculus
# Hexokinase-1 = biological target: T2, Hexokinase-1 (Homo sapiens, UniProt P19367); assay: HK1 enzyme inhibition by HKDC1 hits, SAR follow-up, selectivity assay for HKDC1 inhibitor project, biochemical, set 2, resazurin fluorescence coupled readout (AID 588356); format: functional
# T2 sequence (P19367 whole entry): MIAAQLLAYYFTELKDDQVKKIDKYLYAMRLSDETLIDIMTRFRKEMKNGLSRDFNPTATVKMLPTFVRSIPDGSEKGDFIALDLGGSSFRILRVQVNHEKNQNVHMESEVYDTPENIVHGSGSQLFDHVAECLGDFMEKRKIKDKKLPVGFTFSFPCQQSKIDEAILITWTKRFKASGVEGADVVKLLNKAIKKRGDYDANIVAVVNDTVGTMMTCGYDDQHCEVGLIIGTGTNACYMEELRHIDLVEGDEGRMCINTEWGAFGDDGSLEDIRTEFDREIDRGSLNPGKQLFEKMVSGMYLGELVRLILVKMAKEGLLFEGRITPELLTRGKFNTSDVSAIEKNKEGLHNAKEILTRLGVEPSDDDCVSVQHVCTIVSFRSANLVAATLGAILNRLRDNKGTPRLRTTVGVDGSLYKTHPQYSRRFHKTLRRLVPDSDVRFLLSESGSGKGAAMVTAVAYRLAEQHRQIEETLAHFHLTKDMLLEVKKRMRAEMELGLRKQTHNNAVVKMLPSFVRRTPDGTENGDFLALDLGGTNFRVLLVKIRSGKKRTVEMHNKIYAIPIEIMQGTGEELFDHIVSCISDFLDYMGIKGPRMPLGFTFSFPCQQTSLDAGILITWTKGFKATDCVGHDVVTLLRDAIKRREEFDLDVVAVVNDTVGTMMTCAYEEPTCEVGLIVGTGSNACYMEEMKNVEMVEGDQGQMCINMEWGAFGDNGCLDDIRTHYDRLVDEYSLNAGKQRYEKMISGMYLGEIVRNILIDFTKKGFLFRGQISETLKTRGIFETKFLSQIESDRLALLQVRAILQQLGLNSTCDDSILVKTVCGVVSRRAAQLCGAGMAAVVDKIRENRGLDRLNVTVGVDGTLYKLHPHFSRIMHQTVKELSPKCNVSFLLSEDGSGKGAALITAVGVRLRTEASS
# Hexokinase HKDC1 = biological target: T3, Hexokinase HKDC1 (Homo sapiens, UniProt Q2TB90); assay: HKDC1 hexokinase inhibitors, SAR follow-up, biochemical, set 2 (AID 588355); format: functional
# T3 sequence (Q2TB90 whole entry): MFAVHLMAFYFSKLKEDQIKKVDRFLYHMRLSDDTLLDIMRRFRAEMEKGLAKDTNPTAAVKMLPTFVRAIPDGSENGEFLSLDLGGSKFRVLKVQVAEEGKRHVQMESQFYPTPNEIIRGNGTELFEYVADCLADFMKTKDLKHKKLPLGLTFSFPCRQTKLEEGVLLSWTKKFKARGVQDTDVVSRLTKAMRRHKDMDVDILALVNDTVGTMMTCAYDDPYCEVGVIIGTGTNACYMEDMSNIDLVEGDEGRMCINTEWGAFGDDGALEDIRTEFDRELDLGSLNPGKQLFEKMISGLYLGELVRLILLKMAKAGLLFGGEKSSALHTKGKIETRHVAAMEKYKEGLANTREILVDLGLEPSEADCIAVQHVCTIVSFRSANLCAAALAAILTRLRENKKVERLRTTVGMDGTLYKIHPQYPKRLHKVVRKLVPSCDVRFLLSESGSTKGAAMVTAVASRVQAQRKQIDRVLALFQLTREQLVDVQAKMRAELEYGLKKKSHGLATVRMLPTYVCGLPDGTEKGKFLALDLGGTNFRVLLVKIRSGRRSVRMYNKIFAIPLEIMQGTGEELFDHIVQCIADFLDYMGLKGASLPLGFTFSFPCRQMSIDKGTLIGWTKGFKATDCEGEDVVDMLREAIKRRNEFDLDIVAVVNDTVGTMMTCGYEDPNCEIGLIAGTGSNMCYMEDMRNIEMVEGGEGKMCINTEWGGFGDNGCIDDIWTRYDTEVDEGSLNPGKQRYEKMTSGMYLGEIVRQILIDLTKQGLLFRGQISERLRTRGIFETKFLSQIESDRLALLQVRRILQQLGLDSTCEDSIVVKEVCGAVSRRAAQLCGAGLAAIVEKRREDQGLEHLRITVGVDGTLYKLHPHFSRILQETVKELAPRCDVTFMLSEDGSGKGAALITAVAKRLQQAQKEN
# [5] = biological target: Voltage-gated inwardly rectifying potassium channel KCNH2 (Homo sapiens, UniProt Q12809); conditions: Potency;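 further: confirmatory quantitative high-throughput screen measuring inhibition of hERG channel activity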
# Chain of Voltage-gated inwardly rectifying potassium channel KCNH2 (Q12809 whole entry): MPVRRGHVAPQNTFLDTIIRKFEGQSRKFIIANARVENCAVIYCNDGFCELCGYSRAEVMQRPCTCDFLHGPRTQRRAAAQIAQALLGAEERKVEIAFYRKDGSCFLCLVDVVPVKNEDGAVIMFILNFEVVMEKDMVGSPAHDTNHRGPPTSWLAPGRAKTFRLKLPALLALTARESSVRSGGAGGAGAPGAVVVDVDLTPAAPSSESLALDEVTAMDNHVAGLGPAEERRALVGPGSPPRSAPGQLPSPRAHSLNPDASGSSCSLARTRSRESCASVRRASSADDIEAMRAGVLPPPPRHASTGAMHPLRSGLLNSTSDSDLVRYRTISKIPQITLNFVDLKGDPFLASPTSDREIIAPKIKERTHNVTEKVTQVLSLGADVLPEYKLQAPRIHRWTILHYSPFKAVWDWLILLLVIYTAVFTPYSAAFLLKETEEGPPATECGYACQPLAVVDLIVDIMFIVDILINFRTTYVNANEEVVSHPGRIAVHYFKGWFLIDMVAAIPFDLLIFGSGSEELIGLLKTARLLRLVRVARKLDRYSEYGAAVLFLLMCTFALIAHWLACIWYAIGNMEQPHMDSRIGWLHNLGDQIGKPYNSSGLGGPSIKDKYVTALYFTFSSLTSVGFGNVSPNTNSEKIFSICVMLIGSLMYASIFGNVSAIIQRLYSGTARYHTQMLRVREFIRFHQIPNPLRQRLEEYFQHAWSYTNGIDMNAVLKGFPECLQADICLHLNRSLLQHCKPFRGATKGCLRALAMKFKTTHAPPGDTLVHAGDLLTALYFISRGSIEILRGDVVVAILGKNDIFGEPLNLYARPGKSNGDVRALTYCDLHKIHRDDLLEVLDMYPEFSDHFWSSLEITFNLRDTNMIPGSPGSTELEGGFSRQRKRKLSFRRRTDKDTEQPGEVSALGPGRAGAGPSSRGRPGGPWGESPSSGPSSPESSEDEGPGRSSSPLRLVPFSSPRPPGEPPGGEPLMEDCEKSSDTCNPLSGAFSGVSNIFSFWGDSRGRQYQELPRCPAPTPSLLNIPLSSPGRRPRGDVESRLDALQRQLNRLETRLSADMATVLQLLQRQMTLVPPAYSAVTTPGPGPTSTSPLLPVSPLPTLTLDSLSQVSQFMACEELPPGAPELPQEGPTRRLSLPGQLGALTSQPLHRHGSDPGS
# Cytochrome P450 3A4 = Cytochrome P450 3A4 (Homo sapiens, UniProt P08684);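 further: CYP3A4 tested as one member of a cytochrome P450 panel screen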
# Chain of Cytochrome P450 3A4 (P08684 whole entry): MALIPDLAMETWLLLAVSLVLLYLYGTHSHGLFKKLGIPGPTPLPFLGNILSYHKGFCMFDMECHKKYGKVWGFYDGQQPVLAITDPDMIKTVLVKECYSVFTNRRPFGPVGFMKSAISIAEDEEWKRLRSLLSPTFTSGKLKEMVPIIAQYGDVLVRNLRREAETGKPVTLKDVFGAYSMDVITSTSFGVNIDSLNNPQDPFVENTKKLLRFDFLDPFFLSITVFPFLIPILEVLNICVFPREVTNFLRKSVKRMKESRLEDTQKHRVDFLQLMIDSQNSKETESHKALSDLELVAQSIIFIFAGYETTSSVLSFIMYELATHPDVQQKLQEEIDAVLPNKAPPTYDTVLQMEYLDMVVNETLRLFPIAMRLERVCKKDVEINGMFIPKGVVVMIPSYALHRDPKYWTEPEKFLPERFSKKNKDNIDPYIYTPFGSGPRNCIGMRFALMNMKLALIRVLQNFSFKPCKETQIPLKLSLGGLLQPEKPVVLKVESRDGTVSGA
# Chain of Dual specificity protein kinase CLK1 (P49759 whole entry): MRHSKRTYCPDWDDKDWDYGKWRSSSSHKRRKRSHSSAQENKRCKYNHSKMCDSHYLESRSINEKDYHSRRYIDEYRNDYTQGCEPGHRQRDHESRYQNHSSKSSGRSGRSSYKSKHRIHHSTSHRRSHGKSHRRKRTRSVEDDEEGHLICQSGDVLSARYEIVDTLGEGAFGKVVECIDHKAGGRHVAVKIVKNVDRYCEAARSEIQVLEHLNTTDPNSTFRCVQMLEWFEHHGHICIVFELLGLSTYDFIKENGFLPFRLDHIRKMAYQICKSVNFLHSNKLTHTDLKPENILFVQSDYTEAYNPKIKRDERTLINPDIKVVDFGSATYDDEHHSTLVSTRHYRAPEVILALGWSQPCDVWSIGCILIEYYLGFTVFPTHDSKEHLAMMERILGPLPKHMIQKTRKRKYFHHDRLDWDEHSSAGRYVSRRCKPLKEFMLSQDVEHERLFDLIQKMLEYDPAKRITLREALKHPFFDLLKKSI
compound,measurement,setting,value
c1cncc(CNc2cc(-c3ccc4c(c3)OCO4)ncn2)c1,AC50,[1],5.2 µM (active)
same,AC50,Cytochrome P450 2C19,25.1 µM (inconclusive)
same,AC50,Cytochrome P450 2C9,0.316 µM (inconclusive)
COc1ccc2c(c1)CCc1sc(NC(=O)c3ccco3)nc1-2,AC50,[2],2.01 µM (active)
Cc1ccc(S(=O)(=O)Oc2ccc(C3C4=C(CCCC4=O)N(CCC(=O)O)C4=C3C(=O)CCC4)cc2Cl)cc1,AC50,Trypsin,6.27 µM (active)
same,AC50,CAAX prenyl protease 2,11.4 µM (active)
same,IC50,[3],14.6 µM (active)
same,IC50,[4],0.393 µM (active)
O=C(c1ccc(Cl)cc1)N1CCN(c2cc(C(F)(F)F)nc3ccccc23)CC1,AC50,NIH3T3,23.2 µM (active)
Cc1ccc(N2C(=O)c3cccnc3C2Nc2ccc(C)c(C)c2)cc1 (stereo not drawn),IC50,Hexokinase-1,> 80 µM (inactive)
same,IC50,Hexokinase HKDC1,> 80 µM (inactive)
O=S(=O)(O)C1CCNCC1,AC50,[5],22.4 µM (inconclusive)
same,AC50,Cytochrome P450 3A4,inconclusive
